Reference: patent publication US7557099B2, “Pyrrolobenzodiazepines as key intermediates in the synthesis of dimeric cytotoxic pyrrolobenzodiazepines” (Spirogen Limited, priority 2004, dated 2009)
Like-named read-outs stand apart in the source and are kept apart here.

Tests used:
linear pBR322 DNA = assay: DNA cross-linking, electrophoretic assay (XL50); type: biochemical; conditions: concentration giving 50% cross-linked plasmid DNA; 2 hours, 37° C., pH 7.2
Description: The extent of DNA cross-linking induced by each PBD dimer was determined using the electrophoretic assay method of Hartley, et al. (Hartley, J. A., Berardini, M. D., and Souhami, R. L. (1991) Anal. Biochem. 193, 131-134) based on the principle that, following complete denaturation of linear pBR322 DNA (˜4,300 bp) to the single-stranded (SS) form, an interstrand cross-link results in renaturation to double-stranded (DS) in a neutral gel.
Closed-circular DNA was linearized with HindIII, then dephosphorylated and finally 5′-singly end-labelled using [γ^32P]-ATP and polynucleotide kinase. Reactions containing 30-40 ng of DNA and the test compound were carried out in aqueous TEOA (25 mM triethanolamine, 1 mM EDTA, pH 7.2) buffer at 37° C. in a final volume of 50 μl for 2 hours. Reactions were terminated by addition of an equal volume of stop solution (0.6 M NaOAc, 20 mM EDTA, 100 μg/ml tRNA) followed by precipitation with ethanol. Following centrifugation, the supernatant was discarded and the pellet dried by lyophilization. Samples were re-suspended in 10 μl of strand separation buffer (30% DMSO, 1 mM EDTA, 0.04% bromophenol blue and 0.04% xylene cylanol) and denatured by heating to 90° C. for 2.5 min, followed by immersion in an ice/water bath. Control non-denatured samples were re-suspended in 10 μl of non-denaturing buffer solution (0.6% sucrose, 0.04% bromophenol blue in aqueous TAE buffer [40 mM Tris, 20 mM acetic acid, 2 mM EDTA, pH 8.1]) and loaded directly onto the gel for comparison.
Electrophoresis was carried out for 14-16 h at 40 V using a 0.8% submerged agarose gel (20×25×0.5 cm) in TAE buffer. Gels were dried under vacuum for 2 hour at 80° C. onto one layer each of Whatman 3MM and DE8I filter papers using a BioRad 583 gel dryer. Autoradiographs were obtained after exposure of Hyperfilm-MP film (Amersham plc, U.K.) to the dried gel for either 4 hour with a screen (or over night, without a screen, to obtain a sharper image). Film bands were quantitated using a BioRad GS-670 imaging laser densitometer. Percentage cross-linking was calculated by measuring the total DNA in each lane (summed density for the double-stranded [DS] and single-stranded [SS] bands) relative to the amount of cross-linked DNA (density of DS band alone). A dose-response curve was derived by plotting drug concentration against the determined percentage level of cross-linked DNA which was then analysed to determine the concentration of test compound that results in 50% cross-linked plasmid DNA (XL50).

[1] = tested on: K562 human chronic myeloid leukaemia cells; assay: In vitro cytotoxicity, K562 cells, MTT assay; type: cell-based
Description: K562 human chronic myeloid leukaemia cells were maintained in RPM1 1640 medium supplemented with 10% fetal calf serum and 2 mM glutamine at 37° C. in a humidified atmosphere containing 5% CO2 and were incubated with a specified dose of drug for 1 hour or 96 hours at 37° C. in the dark. The incubation was terminated by centrifugation (5 min, 300 g) and the cells were washed once with drug-free medium. Following the appropriate drug treatment, the cells were transferred to 96-well microtiter plates (10^4 cells per well, 8 wells per sample). Plates were then kept in the dark at 37° C. in a humidified atmosphere containing 5% CO2. The assay is based on the ability of viable cells to reduce a yellow soluble tetrazolium salt, 3-(4,5-dimethylthiazol-2-yl)-2,5-diphenyl-2H-tetrazolium bromide (MTT, Aldrich-Sigma), to an insoluble purple formazan precipitate. Following incubation of the plates for 4 days (to allow control cells to increase in number by approximately 10 fold), 20 μL of MTT solution (5 mg/mL in phosphate-buffered saline) was added to each well and the plates further incubated for 5 hours. The plates were then centrifuged for 5 minutes at 300 g and the bulk of the medium pipetted from the cell pellet leaving 10-20 μL per well. DMSO (200 μL) was added to each well and the samples agitated to ensure complete mixing. The optical density was then read at a wavelength of 550 nm on a Titertek Multiscan ELISA plate reader, and a dose-response curve was constructed. For each curve, an IC50 value was read as the dose required to reduce the final optical density to 50% of the control value.

[2] = tested on: approximately 60 human tumour cell lines; assay: NCI 60 cell screen, SRB assay; type: cell-based; conditions: 48 hour continuous exposure
Description: The National Cancer Institute (NCI), Bethesda, Md., USA has available an in vitro cytotoxicity screen which consists of approximately 60 human tumour cell lines against which compounds are tested at a minimum of five concentrations each differing 10-fold. A 48 hour continuous exposure protocol is used, where cell viability or growth is estimated with an SRB protein assay.
The test compounds were evaluated against approximately 60 human tumour cell lines. The NCI screening procedures were described in detail by Monks and co-workers (Monks, A et al., Journal of the National Cancer Institute, 1991, 83, 757). Briefly, cell suspensions were diluted according to the particular cell type and the expected target cell density (5000-40,000 cells per well based on cell growth characteristics), and added by pipette (100 μL) into 96-well microtitre plates. The cells were allowed a preincubation period of 24 hours at 37° C. for stabilisation. Dilutions at twice the intended test concentration were added at time zero in 100 μL aliquots to the wells. The test compounds were evaluated at five 10-fold dilutions (10^−4, 10^−5, 10^−6, 10^−7 and 10^−[…]). The test compounds were incubated for 48 hours in 5% CO2 atmosphere and 100% humidity. The cells were then assayed using the sulphorhodamine B assay. A plate reader was used to read the optical densities and a microcomputer processed the readings into GI50 values (in Moles), which is the dosage required to limit cell growth to 50%.

[3] = Homo sapiens, 1 hr exposure, read-out: IC50 1 hr exposure
[4] = Homo sapiens, 96 hr exposure, sub-table of 16e-j, read-out: IC50 96 hr exposure

| Structure (SMILES) | EC50 (linear pBR322 DNA) [nM] | IC50 [1, 3] [µM] | GI50 ([2]; Homo sapiens) [nM] | IC50 ([1]; 1 hr exposure, read-out: IC50 1 hr exposure) [µM] | GI50 [2] [nM] | IC50 [1, 4] [µM] | GI50 ([2]; Homo sapiens, sub-table of 29a-c) [nM] |
| --- | --- | --- | --- | --- | --- | --- | --- |
| COc1ccc2c(c1)N=C[C@H]1C(OCCCOC3CCN4C(=O)c5ccc(OC)cc5N=C[C@@H]34)CCN1C2=O (stereo partly drawn) [Compound 9a, 1,1′-[(Propane-1,3-diyl)dioxy]bis[(11aS)-8-methoxy-1,2,3,11a-tetrahydro-5H-pyrrolo[2,1-c][1,4]benzodiazepine-5-one]] | > 100000 | > 30 | 8910 |  |  |  |  |
| COc1ccc2c(c1)N=C[C@H]1C(OCCCCOC3CCN4C(=O)c5ccc(OC)cc5N=C[C@@H]34)CCN1C2=O (stereo partly drawn) [Compound 9b, 1,1′-[(Butane-1,4-diyl)dioxy]bis[(11aS)-8-methoxy-1,2,3,11a-tetrahydro-5H-pyrrolo[2,1-c][1,4]benzodiazepine-5-one]] |  | > 30 | 28100 |  |  |  |  |
| COc1cc2c(cc1OCCCCCOc1cc3c(cc1OC)N=C[C@@H]1CCCN1C3=O)C(=O)N1CCC[C@H]1C=N2 [Compound 9c, 1,11-[(Pentane-1,5-diyl)dioxy]bis[(11aS)-8-methoxy-1,2,3,11a-tetrahydro-5H-pyrrolo[2,1-c][1,4]benzodiazepine-5-one]] |  |  |  | > 30 | 10200 |  |  |
| COc1ccc2c(c1)N=C[C@H]1C(OCCCCCCOC3CCN4C(=O)c5ccc(OC)cc5N=C[C@@H]34)CCN1C2=O (stereo partly drawn) [Compound 9d, 1,1′-[(Hexane-1,6-diyl)dioxy]bis[(11aS)-8-methoxy-1,2,3,11a-tetrahydro-5H-pyrrolo[2,1-c][1,4]benzodiazepine-5-one]] |  | > 30 | 4000 |  |  |  |  |
| COc1ccc2c(c1)N=C[C@H]1C(OCCCCCCCOC3CCN4C(=O)c5ccc(OC)cc5N=C[C@@H]34)CCN1C2=O (stereo partly drawn) [Compound 9e, 1,1′-[(Heptane-1,7-diyl)dioxy]bis[(11aS)-8-methoxy-1,2,3,11a-tetrahydro-5H-pyrrolo[2,1-c][1,4]benzodiazepine-5-one]] | 20000 | > 30 | 2690 |  |  |  |  |
| COc1ccc2c(c1)N=C[C@H]1C(OCCCCCCCCOC3CCN4C(=O)c5ccc(OC)cc5N=C[C@@H]34)CCN1C2=O (stereo partly drawn) [Compound 9f, 1,1′-[(Octane-1,8-diyl)dioxy]bis[(11aS)-8-methoxy-1,2,3,11a-tetrahydro-5H-pyrrolo[2,1-c][1,4]benzodiazepine-5-one]] | 1800 | 9.72 | 1170 |  |  |  |  |
| COc1ccc2c(c1)N=C[C@H]1C(OCCCCCCCCCOC3CCN4C(=O)c5ccc(OC)cc5N=C[C@@H]34)CCN1C2=O (stereo partly drawn) [Compound 9g, 1,1′-[(Nonane-1,9-diyl)dioxy]bis[(11aS)-8-methoxy-1,2,3,11a-tetrahydro-5H-pyrrolo[2,1-c][1,4]benzodiazepine-5-one]] | 980 | 17.3 | 570 |  |  |  |  |
| COc1ccc2c(c1)N=C[C@H]1C(OCCCCCCCCCCOC3CCN4C(=O)c5ccc(OC)cc5N=C[C@@H]34)CCN1C2=O (stereo partly drawn) [Compound 9h, 1,1′-[(Decane-1,10-diyl)dioxy]bis[(11aS)-8-methoxy-1,2,3,11a-tetrahydro-5H-pyrrolo[2,1-c][1,4]benzodiazepine-5-one]] | 170 | 16.1 | 1120 |  |  |  |  |
| COc1ccc2c(c1)N=C[C@H]1C(OCCCCCCCCCCCOC3CCN4C(=O)c5ccc(OC)cc5N=C[C@@H]34)CCN1C2=O (stereo partly drawn) [Compound 9i, 1,1′-[(Undecane-1,11-diyl)dioxy]bis[(11aS)-8-methoxy-1,2,3,11a-tetrahydro-5H-pyrrolo[2,1-c][1,4]benzodiazepine-5-one]] | 190 | 9 | 570 |  |  |  |  |
| COc1ccc2c(c1)N=C[C@H]1C(OCCCCCCCCCCCCOC3CCN4C(=O)c5ccc(OC)cc5N=C[C@@H]34)CCN1C2=O (stereo partly drawn) [Compound 9j, 1,1′-[(Dodecane-1,12-diyl)dioxy]bis[(11aS)-8-methoxy-1,2,3,11a-tetrahydro-5H-pyrrolo[2,1-c][1,4]benzodiazepine-5-one]] | > 100000 | 9.12 | 210 |  |  |  |  |
| COc1ccc2c(c1)C(=O)N1CCC(OCCCOC3CCN4C(=O)c5cc(OC)ccc5N=C[C@@H]34)[C@@H]1C=N2 (stereo partly drawn) [Compound 16a, 1,1′-[(Propane-1,3-diyl)dioxy]bis[(11aS)-7-methoxy-1,2,3,11a-tetrahydro-5H-pyrrolo[2,1-c][1,4]benzodiazepine-5-one]] | 50 | 12.8 | 3160 |  |  |  |  |
| COc1ccc2c(c1)C(=O)N1CCC(OCCCCOC3CCN4C(=O)c5cc(OC)ccc5N=C[C@@H]34)[C@@H]1C=N2 (stereo partly drawn) [Compound 16b, 1,1′-[(Butane-1,4-diyl)dioxy]bis[(11aS)-7-methoxy-1,2,3,11a-tetrahydro-5H-pyrrolo[2,1-c][1,4]benzodiazepine-5-one]] | 1000 | 2.5 | 2510 |  |  |  |  |
| COc1ccc2c(c1)C(=O)N1CCC(OCCCCCOC3CCN4C(=O)c5cc(OC)ccc5N=C[C@@H]34)[C@@H]1C=N2 (stereo partly drawn) [Compound 16c, 1,1′-[(Pentane-1,5-diyl)dioxy]bis[(11aS)-7-methoxy-1,2,3,11a-tetrahydro-5H-pyrrolo[2,1-c][1,4]benzodiazepine-5-one]] | 70 | 0.5 | 15 |  |  |  |  |
| COc1ccc2c(c1)C(=O)N1CCC(OCCCCCCCCCCCOC3CCN4C(=O)c5cc(OC)ccc5N=C[C@@H]34)[C@@H]1C=N2 (stereo partly drawn) [Compound 16i, 1,1′-[(Undecane-1,11-diyl)dioxy]bis[(11aS)-7-methoxy-1,2,3,11a-tetrahydro-5H-pyrrolo[2,1-c][1,4]benzodiazepine-5-one]] |  |  | 220 |  |  | 0.689 |  |
| COc1ccc2c(c1)C(=O)N1CCC(OCCCCCCCCCCCCOC3CCN4C(=O)c5cc(OC)ccc5N=C[C@@H]34)[C@@H]1C=N2 (stereo partly drawn) [Compound 16j, 1,1′-[(Dodecane-1,12-diyl)dioxy]bis[(11aS)-7-methoxy-1,2,3,11a-tetrahydro-5H-pyrrolo[2,1-c][1,4]benzodiazepine-5-one]] |  |  | 150 |  |  | 0.645 |  |
| C=C1CN2C(=O)c3cc(OC)ccc3N=C[C@H]2C1OCCCCCCCCOC1C(=C)CN2C(=O)c3cc(OC)ccc3N=C[C@@H]12 (stereo partly drawn) [Compound 29a, 1,1′-[(Octane-1,8-diyl)dioxy]bis[(11aS)-7-methoxy-2-methylene-1,2,3,11a-tetrahydro-5H-pyrrolo[2,1-c][1,4]benzodiazepine-5-one]] |  |  |  |  |  |  | 13.8 |
